Data reported in US20230085307A1, “PYRIDAZINONE COMPOUND AND HERBICIDE” (NISSAN CHEMICAL CORPORATION, priority 2019, published 2023).

What was measured:
velvetleaf [1] = assay: Test Example 5: herbicidal effect by foliage application, plastic box (Table 20, symbol M); assay type: in vivo, velvetleaf (Abutilon theophrasti); conditions: 320 g/ha, foliage application after 14-day growth, evaluated three weeks after application
Procedure, shortened: (§1)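 Post-emergence foliar test in sterilized diluvial soil. Compound applied as water-diluted emulsion at a predetermined rate to 14-day-old plants; evaluation at three weeks.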

Italian ryegrass [2] = assay: Test Example 4: herbicidal effect by soil treatment (Table 19, symbol K); assay type: in vivo, Italian ryegrass (Lolium multiflorum); conditions: amount of applied herbicide 320 g/ha
Procedure, shortened: (§2)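 Emulsion of test compound, water-diluted to predetermined amount, sprayed on soil after sowing (seed depth ~1.5 cm, sterilized diluvial soil). Greenhouse, 25–30° C. Effect graded at three weeks post-spray.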

chickweed [3] = assay: Test Example 5: herbicidal effect by foliage application, plastic box (Table 20, symbol P); assay type: in vivo, common chickweed (Stellaria media); conditions: 320 g/ha, foliage application after 14-day growth, evaluated three weeks after application
Procedure, shortened: as §1

blackgrass [4] = assay: Test Example 5: herbicidal effect by foliage application, plastic box (Table 20, symbol J); assay type: in vivo, blackgrass (Alopecurus myosuroides); conditions: 320 g/ha, foliage application after 14-day growth, evaluated three weeks after application
Procedure, shortened: as §1

persian speedwell [5] = assay: Test Example 4: herbicidal effect by soil treatment (Table 19, symbol R); assay type: in vivo, Persian speedwell (Veronica persica); conditions: amount of applied herbicide 320 g/ha
Procedure, shortened: as §2

persian speedwell [6] = assay: Test Example 5: herbicidal effect by foliage application, plastic box (Table 20, symbol R); assay type: in vivo, Persian speedwell (Veronica persica); conditions: 320 g/ha, foliage application after 14-day growth, evaluated three weeks after application
Procedure, shortened: as §1

southern crabgrass [7] = assay: Test Example 5: herbicidal effect by foliage application, plastic box (Table 20, symbol F); assay type: in vivo, southern crabgrass (Digitaria ciliaris); conditions: 320 g/ha, foliage application after 14-day growth, evaluated three weeks after application
Procedure, shortened: as §1

windgrass = assay: Test Example 4: herbicidal effect by soil treatment (Table 19, symbol L); assay type: in vivo, windgrass (Apera spica-venti); conditions: amount of applied herbicide 320 g/ha
Procedure, shortened: as §2

false cleavers = assay: Test Example 4: herbicidal effect by soil treatment (Table 19, symbol Q); assay type: in vivo, false cleavers (Galium spurium); conditions: amount of applied herbicide 320 g/ha
Procedure, shortened: as §2

redroot pigweed [8] = assay: Test Example 5: herbicidal effect by foliage application, plastic box (Table 20, symbol N); assay type: in vivo, redroot pigweed (Amaranthus retroflexus); conditions: 320 g/ha, foliage application after 14-day growth, evaluated three weeks after application
Procedure, shortened: as §1

wild oat [9] = assay: Test Example 4: herbicidal effect by soil treatment (Table 19, symbol I); assay type: in vivo, wild oat (Avena fatua); conditions: amount of applied herbicide 320 g/ha
Procedure, shortened: as §2

barnyard grass [10] = assay: Test Example 3: herbicidal effect by foliage application, Wagner pot (Table 18, symbol H); assay type: in vivo, barnyard grass (Echinochloa crus-galli); conditions: 320 g/ha
Procedure, shortened: (§3)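 Plants were sown in alluvial soil held under 0.1–0.5 cm standing water and grown 14 days in a greenhouse at 25–30 °C. An emulsifiable formulation, water-diluted to the set dose, was then sprayed onto the foliage, and effects were scored three weeks later using previously defined criteria.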

green foxtail [11] = assay: Test Example 4: herbicidal effect by soil treatment (Table 19, symbol G); assay type: in vivo, green foxtail (Setaria viridis); conditions: amount of applied herbicide 320 g/ha
Procedure, shortened: as §2

southern crabgrass [12] = assay: Test Example 4: herbicidal effect by soil treatment (Table 19, symbol F); assay type: in vivo, southern crabgrass (Digitaria ciliaris); conditions: amount of applied herbicide 320 g/ha
Procedure, shortened: as §2

wild oat [13] = assay: Test Example 5: herbicidal effect by foliage application, plastic box (Table 20, symbol I); assay type: in vivo, wild oat (Avena fatua); conditions: 320 g/ha, foliage application after 14-day growth, evaluated three weeks after application
Procedure, shortened: as §1

lambsquarters [14] = assay: Test Example 5: herbicidal effect by foliage application, plastic box (Table 20, symbol O); assay type: in vivo, lambsquarters (Chenopodium album); conditions: 320 g/ha, foliage application after 14-day growth, evaluated three weeks after application
Procedure, shortened: as §1

barnyard grass [15] = assay: Test Example 5: herbicidal effect by foliage application, plastic box (Table 20, symbol H); assay type: in vivo, barnyard grass (Echinochloa crus-galli); conditions: 320 g/ha, foliage application after 14-day growth, evaluated three weeks after application
Procedure, shortened: as §1

redroot pigweed [16] = assay: Test Example 4: herbicidal effect by soil treatment (Table 19, symbol N); assay type: in vivo, redroot pigweed (Amaranthus retroflexus); conditions: amount of applied herbicide 320 g/ha
Procedure, shortened: as §2

Chinese sprangletop = assay: Test Example 3: herbicidal effect by foliage application, Wagner pot (Table 18, symbol D); assay type: in vivo, chinese sprangletop (Leptochloa chinensis); conditions: 320 g/ha
Procedure, shortened: as §3

rice flat sedge = assay: Test Example 3: herbicidal effect by foliage application, Wagner pot (Table 18, symbol E); assay type: in vivo, rice flat sedge (Cyperus iria); conditions: 320 g/ha
Procedure, shortened: as §3

velvetleaf [17] = assay: Test Example 4: herbicidal effect by soil treatment (Table 19, symbol M); assay type: in vivo, velvetleaf (Abutilon theophrasti); conditions: amount of applied herbicide 320 g/ha
Procedure, shortened: as §2

blackgrass [18] = assay: Test Example 4: herbicidal effect by soil treatment (Table 19, symbol J); assay type: in vivo, blackgrass (Alopecurus myosuroides); conditions: amount of applied herbicide 320 g/ha
Procedure, shortened: as §2

lambsquarters [19] = assay: Test Example 4: herbicidal effect by soil treatment (Table 19, symbol O); assay type: in vivo, lambsquarters (Chenopodium album); conditions: amount of applied herbicide 320 g/ha
Procedure, shortened: as §2

green foxtail [20] = assay: Test Example 5: herbicidal effect by foliage application, plastic box (Table 20, symbol G); assay type: in vivo, green foxtail (Setaria viridis); conditions: 320 g/ha, foliage application after 14-day growth, evaluated three weeks after application
Procedure, shortened: as §1

Italian ryegrass [21] = assay: Test Example 5: herbicidal effect by foliage application, plastic box (Table 20, symbol K); assay type: in vivo, Italian ryegrass (Lolium multiflorum); conditions: 320 g/ha, foliage application after 14-day growth, evaluated three weeks after application
Procedure, shortened: as §1

barnyard grass [22] = assay: Test Example 4: herbicidal effect by soil treatment (Table 19, symbol H); assay type: in vivo, barnyard grass (Echinochloa crus-galli); conditions: amount of applied herbicide 320 g/ha
Procedure, shortened: as §2

chickweed [23] = assay: Test Example 4: herbicidal effect by soil treatment (Table 19, symbol P); assay type: in vivo, common chickweed (Stellaria media); conditions: amount of applied herbicide 320 g/ha
Procedure, shortened: as §2

COc1ccc(-c2sc3c(F)cccc3c2-c2c(O)c(C)nn(C)c2=O)cc1 [4-005] was tested, and the “herbicidal effect on M: velvetleaf (evaluation grade 0-5)” value (velvetleaf [1]) was 3 (Herbicidal rate of 40% or more and less than 70%), the “Herbicidal effect by soil treatment, K: Italian ryegrass” value (Italian ryegrass [2]) was 0 (Herbicidal rate of 5% or less (almost no effect)) and the “herbicidal effect on P: chickweed (evaluation grade 0-5)” value (chickweed [3]) was 5 (Herbicidal rate of 90% or more (almost completely withered)). For the same compound, the “herbicidal effect on J: blackgrass (evaluation grade 0-5)” value (blackgrass [4]) was 0 (Herbicidal rate of 5% or less (almost no effect)), the “Herbicidal effect by soil treatment, R: persian speedwell” value (persian speedwell [5]) was 5 (Herbicidal rate of 90% or more (almost completely withered)) and the “herbicidal effect on R: persian speedwell (evaluation grade 0-5)” value (persian speedwell [6]) was 5 (Herbicidal rate of 90% or more (almost completely withered)). For the same compound, the “herbicidal effect on F: southern crabgrass (evaluation grade 0-5)” value (southern crabgrass [7]) was 0 (Herbicidal rate of 5% or less (almost no effect)), the “Herbicidal effect by soil treatment, L: windgrass” value (windgrass) was 0 (Herbicidal rate of 5% or less (almost no effect)) and the “Herbicidal effect by soil treatment, Q: false cleavers” value (false cleavers) was 0 (Herbicidal rate of 5% or less (almost no effect)). The “herbicidal effect on N: redroot pigweed (evaluation grade 0-5)” value (redroot pigweed [8]) was 3 (Herbicidal rate of 40% or more and less than 70%), the “Herbicidal effect by soil treatment, I: wild oat” value (wild oat [9]) was 0 (Herbicidal rate of 5% or less (almost no effect)) and the “herbicidal effect on barnyard grass (H)” value (barnyard grass [10]) was 4 (Herbicidal rate of 70% or more and less than 90%). The “Herbicidal effect by soil treatment, G: green foxtail” value (green foxtail [11]) was 5 (Herbicidal rate of 90% or more (almost completely withered)), the “Herbicidal effect by soil treatment, F: southern crabgrass” value (southern crabgrass [12]) was 0 (Herbicidal rate of 5% or less (almost no effect)) and the “herbicidal effect on I: wild oat (evaluation grade 0-5)” value (wild oat [13]) was 0 (Herbicidal rate of 5% or less (almost no effect)). For the same compound, the “herbicidal effect on O: lambsquarters (evaluation grade 0-5)” value (lambsquarters [14]) was 3 (Herbicidal rate of 40% or more and less than 70%), the “herbicidal effect on H: barnyard grass (evaluation grade 0-5)” value (barnyard grass [15]) was 3 (Herbicidal rate of 40% or more and less than 70%) and the “Herbicidal effect by soil treatment, N: redroot pigweed” value (redroot pigweed [16]) was 0 (Herbicidal rate of 5% or less (almost no effect)). The “herbicidal effect on Chinese sprangletop (D)” value (Chinese sprangletop) was 3 (Herbicidal rate of 40% or more and less than 70%), the “herbicidal effect on rice flat sedge (E)” value (rice flat sedge) was 5 (Herbicidal rate of 90% or more (almost completely withered)) and the “Herbicidal effect by soil treatment, M: velvetleaf” value (velvetleaf [17]) was 0 (Herbicidal rate of 5% or less (almost no effect)). For the same compound, the “Herbicidal effect by soil treatment, J: blackgrass” value (blackgrass [18]) was 0 (Herbicidal rate of 5% or less (almost no effect)), the “Herbicidal effect by soil treatment, O: lambsquarters” value (lambsquarters [19]) was 4 (Herbicidal rate of 70% or more and less than 90%) and the “herbicidal effect on G: green foxtail (evaluation grade 0-5)” value (green foxtail [20]) was 5 (Herbicidal rate of 90% or more (almost completely withered)). For the same compound, the “herbicidal effect on K: Italian ryegrass (evaluation grade 0-5)” value (Italian ryegrass [21]) was 4 (Herbicidal rate of 70% or more and less than 90%), the “Herbicidal effect by soil treatment, H: barnyard grass” value (barnyard grass [22]) was 4 (Herbicidal rate of 70% or more and less than 90%) and the “Herbicidal effect by soil treatment, P: chickweed” value (chickweed [23]) was 4 (Herbicidal rate of 70% or more and less than 90%).
